In patent US9914732B2, “Diazabicyclo[4.3.1]decane derivatives for treatment of psychiatric disorders” (Max-Planck-Gesellschaft zur Forderung der Wissenschaften …, priority 2014, dated 2018) one finds neurite outgrowth and Ki data, which are given here for six molecules.

One test deals with N2a cells. In words: N2a cellular assay (neurite outgrowth). The following applies: N2a neuroblastoma cells, FIG. 1. It is filed as cell-based. The protocol: FK506 analogs have repeatedly been described as neuroprotective and […] agents in the prior arts.
Example 12: N2a Cellular Assay
At day one N2a cells were plated into 24-well plates with cover slips (pretreated with polylysine) at a density of 35,000 cells/well and cultured with DMEM (incl. FCS 10% and Pen/Strep 1%) for 24 h. Next, cells were transfected with 80 ng expression plasmids encoding Venus as well as 720 ng pRK5 (mock transfection) in a total volume of 500 μl starvation media containing different concentrations of compounds or DMSO for 36 h (media without FCS; induction of neurite outgrowth). Therefore media was removed and replaced by 400 μl DMEM (empty). Next an equivalent volume of plasmids were given to 50 μl OPTIMEM and incubated for 5 min at RT. Additionally 1.5 μl Lipofectamine 2000 was separately dissolved in 50 μl OPTIMEM. After 5 min both solutions (plasmids and Lipofectamine 2000 containing media) were combined and incubated again for another 20 min. After that 100 μl of this mixture was given to 400 μl media per well. (See also protocol of the provider—Life Technologies).
On the next day cells were washed with PBS and incubated for 30 min with 300 μl PFA (4%) and sucrose (5%) to fix cells. After fixation cells were washed three times, mounted onto microscope slides using 4 μl Vectashield (mounting media) and analyzed by fluorescence microscopy. […]

The next test concerns the target T1, FKBP51 (Homo sapiens, UniProt Q13451).
T1 sequence (Q13451 42-130 limits assumed): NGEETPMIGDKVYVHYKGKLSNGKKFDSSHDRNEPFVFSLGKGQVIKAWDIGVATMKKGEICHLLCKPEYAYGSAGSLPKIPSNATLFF
Nature of the test: Fluorescence polarization (FP) assay, binding to the FK506-binding domain of FKBP51. The note with it: FK506-binding domain of FKBP51 (FKBP51FK1), competition with fluorescent ligand 2b. An outline of the steps: (§1)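 Competitive FP with fluorescent ligand 2b at 20 nM (2× concentration) and FK1 domain at 280 nM (FKBP51) or 400 nM (FKBP52) in 20 mM HEPES pH 8, 0.01% Triton-X100. Anisotropy read after 30 min at room temperature (ex 485, em 535 nm), in duplicate; IC50 by four-parameter fit, Ki via Wang competitive equation.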
(In general: In fluorescence polarisation assays a small probe gives low polarisation when free and higher when bound to something large.)

In a further test the target is T2, FKBP52 (Homo sapiens, UniProt Q02790).
T2 sequence (Q02790 50-138 limits assumed): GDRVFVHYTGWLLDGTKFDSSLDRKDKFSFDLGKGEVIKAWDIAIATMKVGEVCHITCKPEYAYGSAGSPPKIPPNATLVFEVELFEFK
In words: Fluorescence polarization (FP) assay, binding to the FK506-binding domain of FKBP52. The following applies: FK506-binding domain of FKBP52 (FKBP52FK1), competition with fluorescent ligand 2b. The method, boiled down: as §1

As to `COc1ccc(OCCN2C[C@H]([C@H](O)CO)C3CCCC(C2=O)N3S(=O)(=O)c2cc(Cl)cc(Cl)c2)cc1OC` (stereo partly drawn) [Compound C2a, (1S,5S,6R)-10-((3,5-dichlorophenyl)sulfonyl)-5-(1,2-dihydroxyethyl)-3-(2-(3,4-dimethoxyphenoxy)ethyl)-3, 10-diazabicyclo[4.3.1]decan-2-one], in the test on N2a cells, the neurite outgrowth result is “potently enhanced neurite outgrowth”. A word on the Ki: it is the dissociation constant of the complex between target and ligand, obtained from inhibition or displacement. Read a high Ki as lower affinity. With `C=C[C@@H]1CN(Cc2ccco2)C(=O)[C@@H]2CCC[C@H]1N2S(=O)(=O)c1cc(Cl)cc(Cl)c1` [Compound J17, (1S,5R,6R)-10-((3,5-dichlorophenyl)sulfonyl)-3-(furan-2-ylmethyl)-5-vinyl-3,10-diazabicyclo[4.3.1]decan-2-one], the inhibition constant (Ki) at FKBP51 and on FKBP52 was 1000 to 5000 nM in each case.

For `COC[C@H]1CN(Cc2cnnn2Cc2ccccc2)C(=O)[C@@H]2CCC[C@H]1N2S(=O)(=O)c1cccc(F)c1` [Compound N30, (1S,5S,6R)-3-((1-benzyl-1H-1,2,3-triazol-5-yl)methyl)-10-((3-fluorophenyl)sulfonyl)-5-(methoxymethyl)-3,10-diazabicyclo[4.3.1]decan-2-one], the Ki on FKBP51 and at FKBP52 was 100 to 500 nM in each case. Consider `C=CC1CN(Cc2ccccn2)C(=O)C2CCCC1N2S(=O)(=O)c1ccc(NC(C)=O)c(Cl)c1` (stereo in doubt) [Compound K21, N-(2-chloro-4-(((1S,5R,6R)-2-oxo-3-(pyridin-2-ylmethyl)-5-vinyl-3,10-diazabicyclo[4.3.1]decan-10-yl)sulfonyl)phenyl)acetamide], for which the inhibition constant Ki at FKBP51 and at FKBP52 was 100 to 500 nM in each case. In the case of `C#CCN1C[C@H](COC)[C@H]2CCC[C@@H](C1=O)N2S(=O)(=O)c1cccnc1` [Compound N13, (1S,5S,6R)-5-(methoxymethyl)-3-(prop-2-yn-1-yl)-10-(pyridin-3-ylsulfonyl)-3, 10-diazabicyclo[4.3.1]decan-2-one], the Ki on FKBP51 and on FKBP52 was 500 to 1000 nM throughout.

As to `C#CCN1C[C@H](COC)[C@H]2CCC[C@@H](C1=O)N2S(=O)(=O)c1cc(Cl)cc(C(=O)OC)c1` [Compound N12, methyl 3-chloro-5-(((1S,5S,6R)-5-(methoxymethyl)-2-oxo-3-(prop-2-yn-1-yl)-3,10-diazabicyclo[4.3.1]decan-10-yl)sulfonyl)benzoate], the Ki at FKBP51 and on FKBP52 was 100 to 500 nM in each case.
